{"source": "paper PMC5021961", "about": "“Generation of self-clusters of galectin-1 in the farnesyl-bound form” (Scientific Reports, 2016)", "target": "T1, human galectin-1 (Gal-1) (Homo sapiens, UniProt P09382)", "T1 construct": "gene LGALS1", "T1 sequence (P09382 2-135)": "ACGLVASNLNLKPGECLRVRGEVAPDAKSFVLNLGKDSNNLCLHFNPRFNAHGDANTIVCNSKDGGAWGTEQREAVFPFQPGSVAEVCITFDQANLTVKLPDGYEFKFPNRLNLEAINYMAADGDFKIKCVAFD", "test": "Trp68 fluorescence titration (equilibrium fit with Hill coefficient […]), fluorescence lifetime, UV resonance Raman, CD, native PAGE self-clustering", "type": "binding", "note": "pKd: −log10 of the molar value."}
{"smiles": "CC(C)=CCC/C(C)=C/CC/C(C)=C/CSc1ccccc1C(=O)O", "note": "[FTS, farnesyl thiosalicylic acid]", "values": [{"measurement": "pKd", "result": "~5.64"}]}
